US20100173943A1, “INSECTICIDAL COMPOSITIONS WITH IMPROVED ACTION” (BAYER CROPSCIENCE AG, priority 2007, published 2010)
Where two headings read alike, the source gives them in different places.

Experiments:
[1] = system: cotton aphid (Aphis gossypii); assay: Aphis gossypii test (APHIGO spray treatment); assay type: in vivo; details: for pest or weed control at 4 ppm: 4 ppm a.i. alone
Experimental: Aphis gossypii Test (APHIGO Spray Treatment)
(§1) Solvent: 7 parts by weight of dimethylformamide
(§2) Emulsifier: 2 parts by weight of alkylaryl polyglycol ether
To prepare a ready-to-use active ingredient formulation, 1 part by weight of active ingredient is mixed with the specified amounts of solvent and emulsifier and the concentrate is diluted with emulsifier-containing water to the desired concentration. In the case that addition of ammonium salts, penetrants, or ammonium salts and penetrants is required, they are pipetted in each case into the finished preparation solution after dilution in a concentration of 1000 ppm each.
Cotton leaves (Gossypium hirsutum) highly infested by the cotton aphid (Aphis gossypii) are sprayed with an active ingredient formulation with the desired concentration.
After the desired period, the kill rate in % is determined. 100% means that all aphids have been killed; 0% means that no aphids have been killed.

[2] = system: green peach aphid (Myzus persicae); assay: Myzus persicae test (MYZUPE); assay type: in vivo; details: for pest or weed control at 4 ppm: 4 ppm a.i. alone
Experimental: Myzus persicae Test (MYZUPE)
as §1, §2
To prepare an appropriate active ingredient formulation, 1 part by weight of active ingredient is mixed with the given amounts of solvent and emulsifier, and the concentrate is diluted with emulsifier-containing water to the desired concentration. In the case that addition of ammonium salts, penetrants, or ammonium salts and penetrants is required, they are pippetted in each case into the finished preparation solution after dilution in a concentration of 1000 ppm each.
Pepper plants (Capsicum annuum) highly infested by the green peach aphid (Myzus persicaei) are treated by spraying with the active ingredient formulation in the desired concentration.
After the desired time, the kill rate in % is determined. 100% means that all animals have been killed; 0% means that no animals have been killed.

[3] = 0.8 ppm a.i. + AMS and RME 1000 ppm each, cotton leaves sprayed, 6 days
[4] = 0.8 ppm a.i. + ammonium sulphate 1000 ppm, cotton leaves sprayed, 6 days
[5] = 0.8 ppm a.i. + rapeseed oil methyl ester 1000 ppm, cotton leaves sprayed, 6 days
[6] = Aphis gossypii, 144 h, 0.8 ppm a.i. alone, cotton leaves sprayed, 6 days, read-out: Kill in % after 6 days a.i.
[7] = 0.8 ppm a.i. + AMS and RME 1000 ppm each, pepper plants sprayed, 6 days
[8] = 0.8 ppm a.i. + ammonium sulphate 1000 ppm, pepper plants sprayed, 6 days
[9] = 0.8 ppm a.i. + rapeseed oil methyl ester 1000 ppm, pepper plants sprayed, 6 days
[10] = 4 ppm a.i. + AMS and RME 1000 ppm each, pepper plants sprayed, 6 days
[11] = 4 ppm a.i. + ammonium sulphate 1000 ppm, pepper plants sprayed, 6 days
[12] = 4 ppm a.i. + rapeseed oil methyl ester 1000 ppm, pepper plants sprayed, 6 days
[13] = Myzus persicae, 144 h, 0.8 ppm a.i. alone, pepper plants sprayed, 6 days, read-out: Kill in % after 6 days a.i.
[14] = Myzus persicae, 144 h, pepper plants sprayed, 6 days, read-out: Kill in % after 6 days a.i.
[15] = 4 ppm a.i. + AMS and RME 1000 ppm each, cotton leaves sprayed, 6 days
[16] = 4 ppm a.i. + ammonium sulphate 1000 ppm, cotton leaves sprayed, 6 days
[17] = 4 ppm a.i. + rapeseed oil methyl ester 1000 ppm, cotton leaves sprayed, 6 days
[18] = Aphis gossypii, 144 h, cotton leaves sprayed, 6 days, read-out: Kill in % after 6 days a.i.

SMILES | Kill in % after 6 days +AMS + RME [1, 3] [%] | Kill in % after 6 days +AMS [1, 4] [%] | Kill in % after 6 days +RME [1, 5] [%] | pest or weed control at 0.8 ppm [1, 6] [%] | Kill in % after 6 days +AMS + RME [2, 7] [%] | Kill in % after 6 days +AMS [2, 8] [%] | Kill in % after 6 days +RME [2, 9] [%] | Kill in % after 6 days +AMS + RME [2, 10] [%] | Kill in % after 6 days +AMS [2, 11] [%] | Kill in % after 6 days +RME [2, 12] [%] | pest or weed control at 0.8 ppm [2, 13] [%] | pest or weed control at 4 ppm [2, 14] [%] | also measured
O=C1C=C(N(CCF)Cc2ccc(Br)nc2)CO1 [Compound I-1, 4-{[(6-bromopyrid-3-yl)methyl](2-fluoroethyl)amino}furan-2(5H)-one] | 95 | 20 | 50 | 25 | 35 | 0 | 25 | 99 | 95 | 99 | 0 | 35 | –
O=C1C=C(N(Cc2ccc(Br)nc2)CC(F)F)CO1 [Compound I-2] | 15 | 98 | 90 | 15 | 30 | 50 | 98 | – | – | – | 0 | – | –
O=C1C=C(N(Cc2ccc(F)nc2)CC(F)F)CO1 [Compound I-3, 4-{[(6-fluoropyrid-3-yl)methyl](2,2-difluoroethyl)amino}furan-2(5H)-one] | 90 | 15 | 35 | 0 | – | – | – | 100 | 80 | 85 | – | 0 | –
O=C1C=C(N(CCF)Cc2cnc(Cl)s2)CO1 [Compound I-4, 4-{[(2-chloro-1,3-thiazol-5-yl)methyl](2-fluoroethyl)amino}furan-2(5H)-one] | – | – | – | – | – | – | – | 100 | 80 | 90 | – | 15 | Kill in % after 6 days +AMS + RME [1, 15]: 85%; Kill in % after 6 days +AMS [1, 16]: 20%; Kill in % after 6 days +RME [1, 17]: 65%; pest or weed control at 4 ppm [1, 18]: 20%
O=C1C=C(N(CCF)Cc2ccc(Cl)nc2)CO1 [Compound I-6, 4-{[(6-chloropyrid-3-yl)methyl](2-fluoroethyl)amino}furan-2(5H)-one] | 70 | 55 | 80 | 45 | – | – | – | 100 | 85 | 100 | – | 60 | Kill in % after 6 days +AMS + RME ([1]; 0.16 ppm a.i. + AMS and RME 1000 ppm each, cotton leaves sprayed, 6 days): 40%; Kill in % after 6 days +AMS ([1]; 0.16 ppm a.i. + ammonium sulphate 1000 ppm, cotton leaves sprayed, 6 days): 0%; Kill in % after 6 days +RME ([1]; 0.16 ppm a.i. + rapeseed oil methyl ester 1000 ppm, cotton leaves sprayed, 6 days): 25%; pest or weed control at 0.16 ppm ([1]; Aphis gossypii, 144 h, 0.16 ppm a.i. alone, cotton leaves sprayed, 6 days, read-out: Kill in % after 6 days a.i.): 0%
O=C1C=C(N(Cc2ccc(Cl)nc2)CC(F)F)CO1 [Compound I-7, 4-{[(6-chloropyrid-3-yl)methyl](2,2-difluoroethyl)amino}furan-2(5H)-one] | 80 | 60 | 70 | – | 90 | 45 | 80 | – | – | – | – | – | pest or weed control at 0.8 ppm ([1]; Aphis gossypii, 144 h, read-out: Kill in % after 6 days a.i.): 60%; pest or weed control at 0.8 ppm ([2]; Myzus persicae, 144 h, read-out: Kill in % after 6 days a.i.): 55%
CN(Cc1cnc(Cl)c(F)c1)C1=CC(=O)OC1 [Compound I-8, 4-{[(6-chloro-5-fluoropyrid-3-yl)methyl](methyl)amino}furan-2(5H)-one] | 75 | 30 | 60 | 20 | 95 | 50 | 95 | – | – | – | 40 | – | –
O=C1C=C(N(Cc2cnc(Cl)c(Cl)c2)C2CC2)CO1 [Compound I-9, 4-{[(5,6-dichloropyrid-3-yl)methyl](cyclopropyl)amino}furan-2(5H)-one] | 30 | 0 | 15 | 0 | – | – | – | 70 | 15 | 60 | – | 0 | –
CN(Cc1cnc(Cl)c(Cl)c1)C1=CC(=O)OC1 [Compound I-10, 4-{[(5,6-dichloropyrid-3-yl)methyl](methyl)amino}furan-2(5H)-one] | – | – | – | – | 99 | 0 | 90 | – | – | – | 0 | – | Kill in % after 6 days +AMS + RME [1, 15]: 99%; Kill in % after 6 days +AMS [1, 16]: 99%; Kill in % after 6 days +RME [1, 17]: 85%; pest or weed control at 4 ppm [1, 18]: 65%
CN(Cc1cnc(Br)c(F)c1)C1=CC(=O)OC1 [Compound I-11, 4-{[(6-bromo-5-fluoropyrid-3-yl)methyl](methyl)amino}furan-2(5H)-one] | 99 | 55 | 95 | 15 | 99 | 95 | 99 | – | – | – | 85 | – | Kill in % after 6 days +AMS + RME ([2]; 0.16 ppm a.i. + AMS and RME 1000 ppm each, pepper plants sprayed, 6 days): 90%; Kill in % after 6 days +AMS ([2]; 0.16 ppm a.i. + ammonium sulphate 1000 ppm, pepper plants sprayed, 6 days): 0%; Kill in % after 6 days +RME ([2]; 0.16 ppm a.i. + rapeseed oil methyl ester 1000 ppm, pepper plants sprayed, 6 days): 0%; pest or weed control at 0.16 ppm ([2]; Myzus persicae, 144 h, 0.16 ppm a.i. alone, pepper plants sprayed, 6 days, read-out: Kill in % after 6 days a.i.): 0%
O=C1C=C(N(Cc2cnc(Br)c(F)c2)C2CC2)CO1 [Compound I-12, 4-{[(6-bromo-5-fluoropyrid-3-yl)methyl](cyclopropyl)amino}furan-2(5H)-one] | 25 | 5 | 10 | 0 | 45 | 0 | 10 | 95 | 95 | 100 | 5 | 85 | Kill in % after 6 days +AMS + RME [1, 15]: 75%; Kill in % after 6 days +AMS [1, 16]: 80%; Kill in % after 6 days +RME [1, 17]: 85%; pest or weed control at 4 ppm [1, 18]: 55%
